Measurements published in patent US4820694A, “Modifications of 3-O-demethylmycinose in macrocin and lactenocin” (priority 1986, dated 1989).
≈ marks a conversion by molar mass, not a printed value. Where two headings read alike, the source gives them in different places.

How the values were obtained:
Escherichia coli EC14 = test: standard agar-dilution MIC assay; assay type: cell-based; settings: agar-dilution, read-out: MIC
Description: (§1) The MIC's in Table III were determined by standard agar-dilution assays. The MIC's in Table IV were obtained using conventional brothdilution microtiter tests.

[1] = tested on: Haemophilus influenzae 76; test: standard agar-dilution MIC assay; assay type: cell-based; settings: Haemophilus influenzae, 76
Description: as §1

[2] = tested on: Haemophilus influenzae C.L.; test: standard agar-dilution MIC assay; assay type: cell-based; settings: Haemophilus influenzae
Description: as §1

[3] = tested on: Klebsiella pneumoniae X68; test: standard agar-dilution MIC assay; assay type: cell-based; settings: Klebsiella pneumoniae, X68; agar-dilution; read-out: MIC
Description: as §1

[4] = tested on: Pseudomonas aeruginosa X239; test: standard agar-dilution MIC assay; assay type: cell-based; settings: Pseudomonas aeruginosa, X239; agar-dilution; read-out: MIC
Description: as §1

[5] = tested on: Staphylococcus aureus V41; test: standard agar-dilution MIC assay; assay type: cell-based; settings: Staphylococcus aureus, V41
Description: as §1

[6] = tested on: Staphylococcus aureus X1.1; test: standard agar-dilution MIC assay; assay type: cell-based; settings: Staphylococcus aureus, X1.1
Description: as §1

[7] = tested on: Staphylococcus aureus X400; test: standard agar-dilution MIC assay; assay type: cell-based; settings: Staphylococcus aureus, X400
Description: as §1

[8] = tested on: Staphylococcus epidermidis 222; test: standard agar-dilution MIC assay; assay type: cell-based; settings: Staphylococcus epidermidis, 222
Description: as §1

[9] = tested on: Staphylococcus epidermidis EPI1; test: standard agar-dilution MIC assay; assay type: cell-based; settings: Staphylococcus epidermidis, EPI1
Description: as §1

[10] = tested on: Streptococcus Group D 9960; test: standard agar-dilution MIC assay; assay type: cell-based; settings: GROUPD9960, read-out: MIC
Description: as §1

[11] = tested on: Streptococcus Group D X66; test: standard agar-dilution MIC assay; assay type: cell-based; settings: read-out: MIC
Description: as §1

[12] = tested on: Streptococcus pyogenes C203; test: standard agar-dilution MIC assay; assay type: cell-based; settings: Streptococcus pyogenes, C203
Description: as §1

[13] = tested on: Staphylococcus aureus S13E; test: microbe, parasite or virus in culture; assay type: cell-based; settings: Staphylococcus aureus, S13E
Description: as §1

[14] = tested on: Streptococcus pneumoniae Park I; test: microbe, parasite or virus in culture; assay type: cell-based; settings: Streptococcus pneumoniae
Description: as §1

[15] = tested on: Bordetella bronchiseptica; test: broth-dilution microtiter MIC test; assay type: cell-based; settings: Bordetella bronchiseptica; broth-dilution microtiter; read-out: MIC
Description: as §1

[16] = tested on: Mycoplasma gallisepticum 15E; test: broth-dilution microtiter MIC test; assay type: cell-based; settings: Mycoplasmoides gallisepticum, 15E
Description: as §1

[17] = tested on: Mycoplasma gallisepticum 29C; test: broth-dilution microtiter MIC test; assay type: cell-based; settings: Mycoplasmoides gallisepticum, 29C
Description: as §1

[18] = tested on: Mycoplasma gallisepticum 36H; test: broth-dilution microtiter MIC test; assay type: cell-based; settings: Mycoplasmoides gallisepticum, 36H
Description: as §1

[19] = tested on: Mycoplasma hyopneumoniae S5972; test: broth-dilution microtiter MIC test; assay type: cell-based; settings: Mesomycoplasma hyopneumoniae, S5972
Description: as §1

Mycoplasma hyorhinis 29E = test: broth-dilution microtiter MIC test; assay type: cell-based; settings: Mycoplasma, 29E
Description: as §1

Mycoplasma synoviae 40A = test: broth-dilution microtiter MIC test; assay type: cell-based; settings: Mycoplasmopsis synoviae, 40A
Description: as §1

[20] = tested on: Pasteurella hemolytica 22C; test: broth-dilution microtiter MIC test; assay type: cell-based; settings: Pasteurella, 22C
Description: as §1

[21] = tested on: Pasteurella hemolytica 23C; test: broth-dilution microtiter MIC test; assay type: cell-based; settings: Pasteurella, 23C
Description: as §1

[22] = tested on: Pasteurella hemolytica 41D; test: broth-dilution microtiter MIC test; assay type: cell-based; settings: Pasteurella, 41D
Description: as §1

[23] = tested on: Pasteurella multocida 17E; test: broth-dilution microtiter MIC test; assay type: cell-based; settings: Pasteurella multocida, 17E
Description: as §1

[24] = tested on: Pasteurella multocida 22A; test: broth-dilution microtiter MIC test; assay type: cell-based; settings: Pasteurella multocida, 22A
Description: as §1

[25] = tested on: Pasteurella multocida 40G; test: broth-dilution microtiter MIC test; assay type: cell-based; settings: Pasteurella multocida, 40G
Description: as §1

[26] = tested on: Pasteurella multocida 60A; test: broth-dilution microtiter MIC test; assay type: cell-based; settings: Pasteurella multocida, 60A
Description: as §1

[27] = tested on: Pasteurella multocida 68C; test: broth-dilution microtiter MIC test; assay type: cell-based; settings: Pasteurella multocida, 68C
Description: as §1

[28] = tested on: Staphylococcus aureus 19C; test: broth-dilution microtiter MIC test; assay type: cell-based; settings: Staphylococcus aureus, 19C
Description: as §1

Streptococcus sp. 19F = test: broth-dilution microtiter MIC test; assay type: cell-based; settings: Streptococcus, SP.19F
Description: as §1

[29] = tested on: Streptococcus pyogenes C203; test: protection of mice experimentally infected with S. pyogenes C203; assay type: in vivo; settings: mice, mg/kg × 2, doses given 1 and 4 hours postinfection, read-out: ED50
How it was run: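 Mice experimentally infected with S. pyogenes C203 got two doses of test compound, at 1 and 4 h postinfection. The ED50 is the dose in mg/kg (per dose, given twice) that protected 50% of the animals.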

[30] = tested on: Streptococcus Group D 2041; test: standard agar-dilution MIC assay; assay type: cell-based; settings: GROUPD2041
Description: as §1

[31] = broth-dilution microtiter, read-out: MIC

Compound	MIC (Escherichia coli EC14) [µg/mL]	MIC [2] [µg/mL]	MIC [3] [µg/mL]	MIC [4] [µg/mL]	MIC [6] [µg/mL]	MIC [9] [µg/mL]	MIC [11] [µg/mL]	MIC [13] [µg/mL]	MIC [15] [µg/mL]	MIC [17] [µg/mL]	MIC [20] [µg/mL]	MIC [21] [µg/mL]	MIC [22] [µg/mL]	MIC [23] [µg/mL]	MIC [24] [µg/mL]	MIC [25] [µg/mL]	MIC [26] [µg/mL]	MIC [28] [µg/mL]	ED50 ([29]; C203, Oral) [mg/kg]	ED50 ([29]; C203, sc, Subcutaneous) [mg/kg]	other results
CCC1OC(=O)CC(O)C(C)C(OC2OC(C)C(O)C(N(C)C)C2O)C(CC=O)CC(C)C(=O)C=CC(C)=CC1COC1OC(C)C2OC(=O)OC2C1OC (centres unmarked) [Compound 51, Lactenocin-3",4"-Carbonate Derivative]	> 128	8 (≈ 10.2 µM)	> 128	> 128	1 (≈ 1.28 µM)	1 (≈ 1.28 µM)	2 (≈ 2.55 µM)	1 (≈ 1.28 µM)	> 50	0.39 (≈ 0.498 µM)	12.5 (≈ 15.9 µM)	25 (≈ 31.9 µM)	12.5 (≈ 15.9 µM)	6.25 (≈ 7.97 µM)	6.25 (≈ 7.97 µM)	3.12 (≈ 3.98 µM)	6.25 (≈ 7.97 µM)	1.56 (≈ 1.99 µM)	> 100	1.1	MIC [1]: 8 µg/mL (≈ 10.2 µM); MIC [5]: 2 µg/mL (≈ 2.55 µM); MIC [7]: 2 µg/mL (≈ 2.55 µM); MIC [8]: 0.5 µg/mL (≈ 0.638 µM); MIC [10]: 2 µg/mL (≈ 2.55 µM); MIC [12]: 0.25 µg/mL (≈ 0.319 µM); MIC [14]: 0.25 µg/mL (≈ 0.319 µM); MIC [16]: 50 µg/mL (≈ 63.8 µM); MIC [18, 31]: > 50 µg/mL; MIC [19, 31]: 0.097 µg/mL (≈ 0.124 µM); MIC (Mycoplasma hyorhinis 29E; [31]): 3.2 µg/mL (≈ 4.08 µM); MIC (Mycoplasma synoviae 40A): 0.78 µg/mL (≈ 0.995 µM); MIC [27]: 12.5 µg/mL (≈ 15.9 µM); MIC (Streptococcus sp. 19F): 3.12 µg/mL (≈ 3.98 µM)
CCC1OC(=O)CC(O)C(C)C(OC2OC(C)C(O)C(N(C)C)C2O)C(CC=O)CC(C)C(=O)C=CC(C)=CC1COC1OC(C)C2OC(C)(C)OC2C1OC (centres unmarked) [Compound 55, 3",4"-Isopropylidene Derivative of Lactenocin]	> 128	16 (≈ 20.1 µM)	> 128	> 128	2 (≈ 2.51 µM)	2 (≈ 2.51 µM)	32 (≈ 40.1 µM)	2 (≈ 2.51 µM)	> 50	0.39 (≈ 0.489 µM)	50 (≈ 62.7 µM)	50 (≈ 62.7 µM)	50 (≈ 62.7 µM)	25 (≈ 31.3 µM)	25 (≈ 31.3 µM)	25 (≈ 31.3 µM)	50 (≈ 62.7 µM)	3.12 (≈ 3.91 µM)	> 100	> 10	MIC [1]: 16 µg/mL (≈ 20.1 µM); MIC [5]: 2 µg/mL (≈ 2.51 µM); MIC [7]: 4 µg/mL (≈ 5.01 µM); MIC [8]: 1 µg/mL (≈ 1.25 µM); MIC [30]: 16 µg/mL (≈ 20.1 µM); MIC [12]: 1 µg/mL (≈ 1.25 µM); MIC [14]: 8 µg/mL (≈ 10 µM); MIC [16, 31]: > 50 µg/mL; MIC [18, 31]: > 50 µg/mL; MIC [19]: 0.78 µg/mL (≈ 0.977 µM); MIC (Mycoplasma hyorhinis 29E): 50 µg/mL (≈ 62.7 µM); MIC (Mycoplasma synoviae 40A): 3.12 µg/mL (≈ 3.91 µM)
CCC1OC(=O)CC(O)C(C)C(OC2OC(C)C(OC3CC(C)(O)C(O)C(C)O3)C(N(C)C)C2O)C(CC=O)CC(C)C(=O)C=CC(C)=CC1COC1OC(C)C2OC(=O)OC2C1OC (centres unmarked) [Compound 49, Macrocin-3'",4'"-Carbonate Derivative]	> 128	32 (≈ 34.5 µM)	> 128	> 128	0.5 (≈ 0.539 µM)	1 (≈ 1.08 µM)	1 (≈ 1.08 µM)	0.5 (≈ 0.539 µM)	> 50	0.195 (≈ 0.21 µM)	50 (≈ 53.9 µM)	25 (≈ 26.9 µM)	50 (≈ 53.9 µM)	12.5 (≈ 13.5 µM)	25 (≈ 26.9 µM)	25 (≈ 26.9 µM)	25 (≈ 26.9 µM)	0.78 (≈ 0.84 µM)	85.6	1	MIC [1]: 16 µg/mL (≈ 17.2 µM); MIC [5]: 0.5 µg/mL (≈ 0.539 µM); MIC [7]: 1 µg/mL (≈ 1.08 µM); MIC [8]: 0.25 µg/mL (≈ 0.269 µM); MIC [10]: 1 µg/mL (≈ 1.08 µM); MIC ([12]; agar-dilution, read-out: MIC): 0.12 µg/mL (≈ 0.129 µM); MIC ([14]; agar-dilution, read-out: MIC): 0.12 µg/mL (≈ 0.129 µM); MIC [16]: 25 µg/mL (≈ 26.9 µM); MIC [18, 31]: > 50 µg/mL; MIC [19, 31]: 0.097 µg/mL (≈ 0.105 µM); MIC (Mycoplasma hyorhinis 29E): 0.78 µg/mL (≈ 0.84 µM); MIC (Mycoplasma synoviae 40A): 0.195 µg/mL (≈ 0.21 µM); MIC [27]: 6.25 µg/mL (≈ 6.73 µM); MIC (Streptococcus sp. 19F): 0.39 µg/mL (≈ 0.42 µM)
CCC1OC(=O)CC(O)C(C)C(OC2OC(C)C(O)C(N(C)C)C2O)C(CCOc2ccccc2)CC(C)C(=O)C=CC(C)=CC1COC1OC(C)C=CC1OC (centres unmarked) [Compound 43, 3",4"-Di(dehydrodeoxy)-20-DH-20-O-phenyl-lactenocin]	> 128	32 (≈ 39.9 µM)	> 128	> 128	0.25 (≈ 0.312 µM)	0.25 (≈ 0.312 µM)	1 (≈ 1.25 µM)	0.25 (≈ 0.312 µM)	> 50	0.39 (≈ 0.486 µM)	50 (≈ 62.3 µM)	50 (≈ 62.3 µM)	50 (≈ 62.3 µM)	25 (≈ 31.2 µM)	50 (≈ 62.3 µM)	25 (≈ 31.2 µM)	25 (≈ 31.2 µM)	1.56 (≈ 1.95 µM)	77.7	> 10	MIC ([5]; agar-dilution, Penicillin-resistant strain, read-out: MIC): 0.25 µg/mL (≈ 0.312 µM); MIC ([7]; agar-dilution, Methicillin-resistant strain, read-out: MIC): 0.25 µg/mL (≈ 0.312 µM); MIC ([8]; agar-dilution, read-out: MIC): 0.12 µg/mL (≈ 0.15 µM); MIC [30]: 1 µg/mL (≈ 1.25 µM); MIC [12]: 0.25 µg/mL (≈ 0.312 µM); MIC [14]: 0.5 µg/mL (≈ 0.623 µM); MIC [16]: 50 µg/mL (≈ 62.3 µM); MIC [18]: 25 µg/mL (≈ 31.2 µM); MIC [19]: 6.25 µg/mL (≈ 7.79 µM); MIC [27]: 12.5 µg/mL (≈ 15.6 µM); MIC (Streptococcus sp. 19F): 0.78 µg/mL (≈ 0.973 µM)
